Values quoted from earlier work in patent US12653874B2, “Nant cancer vaccine” (NantCell, Inc., priority 2016, dated 2026).

Columns and labels:
advanced melanoma = conditions: unresectable or advanced melanoma, result in words
[1] = patients receiving treatment (Conroy 2011)

CC(C)(C)c1nc(-c2cccc(NS(=O)(=O)c3c(F)cccc3F)c2F)c(-c2ccnc(N)n2)s1 [Dabrafenib]
PFS (advanced melanoma): improvement in PFS when compared to dacarbazine

FOLFIRINOX
median OS (pancreatic cancer; [1]): 11.1 months | median PFS (pancreatic cancer; [1]): 6.4 months | OS and PFS versus gemcitabine monotherapy (pancreatic cancer; result in words): improves OS and PFS over monotherapy with gemcitabine

rituximab: anti-CD20 antibody
response rate to single agent retreatment (CD20-positive NHL; rituximab refractory (RR) patients, reasonable estimate, trial data not reported): < 5% | patients responding to retreatment (CD20-positive NHL; rituximab sensitive (RS) patients): approximately 40%
